24 molecules from patent US7825256B2, “Inducible nitric oxide synthase dimerization inhibitors” (Kalypsys, Inc., priority 2004, dated 2010) can be followed below.

Each structure is given as a SMILES string. pEC50: −log10 of the molar value. Bounds are passed on as bounds.

The target in the assay is T1, hiNOS (Homo sapiens, UniProt P35228).
T1 construct: expressed in transfected cells; host or cells: HEK293
Put plainly: DAN assay, hiNOS expressed in transiently transfected HEK293 cells. Format: cell-based. To be noted: HEK293 cells transiently transfected with hiNOS. From the text:
The source of nitric oxide synthase (NOS) enzyme can be generated in several ways including induction of endogenous iNOS using cytokines and/or lipopolysaccharide (LPS) in various cell types known in the art. Alternatively, the gene encoding the enzyme can be cloned and the enzyme can be generated in cells via heterologous expression from a transient or stable expression plasmid with suitable features for protein expression as are known in the art. Enzymatic activity (nitric oxide production) is calcium independent for iNOS, while the constitutive NOS isoforms, nNOS and eNOS, become active with the addition of various cofactors added to cellular media or extract as are well known in the art. Enzymes specified in Table 1 were expressed in HEK293 cells transiently transfected with the indicated NOS isoform.
A major metabolic pathway for nitric oxide is to nitrate and nitrite, which are stable metabolites within tissue culture, tissue, plasma, and urine (S Moncada, A Higgs, N Eng J Med 329, 2002 (1993)).
The level of nitrate or nitrite in the specimen can be quantified by any method known in the art which provides adequate sensitivity and reproducibility. A variety of protocols have also been described for detecting and quantifying nitrite and nitrate levels in biological fluids by ion chromatography (e.g., S A Everett et al., J. Chromatogr. 706, 437 (1995); J M Monaghan et al., J. Chromatogr. 770, 143 (1997)), high-performance liquid chromatography (e.g., M Kelm et al., Cardiovasc. Res. 41, 765 (1999)), and capillary electrophoresis (M A Friedberg et al., J. Chromatogr. 781, 491 (1997)). For example, 2,3-diaminonaphthalene reacts with the nitrosonium cation that forms spontaneously from NO to form the fluorescent product […]. Using 2,3-diaminonaphthalene (“DAN”), researchers have developed a rapid, quantitative fluorometric assay that can detect from 10 nM to 10 μM nitrite and is compatible with a multi-well microplate format. […] DAN reacts with nitrite ion and gives fluorescent […] (M C Carré et al., Analysis 27, 835-838 (1999)). Table 1 provides the test results of various compounds of the subject invention using the DAN assay.
A specimen can be processed prior to determination of nitrate or nitrite as required by the quantification method, or in order to improve the results, or for the convenience of the investigator. For example, processing can involve centrifuging, filtering, or homogenizing the sample. If the sample is whole blood, the blood can be centrifuged to remove cells and the nitrate or nitrite assay performed on the plasma or serum fraction. If the sample is tissue, the tissue can be dispersed or homogenized by any method known in the art prior to determination of nitrate or nitrite. It may be preferable to remove cells and other debris by centrifugation or another method and to determine the nitrate or nitrite level using only the fluid portion of the sample, or the extracellular fluid fraction of the sample. The sample can also be preserved for later determination, for example by freezing of urine or plasma samples. When appropriate, additives may be introduced into the specimen to preserve or improve its characteristics for use in the nitrate or nitrite assay.
The “level” of nitrate, nitrite, or other NO-related product usually refers to the concentration (in moles per liter, micromoles per liter, or other suitable units) of nitrate or nitrite in the specimen, or in the fluid portion of the specimen. However, other units of measure can also be used to express the level of nitrate or nitrite. For example, an absolute amount (in micrograms, milligrams, nanomoles, moles, or other suitable units) can be used, particularly if the amount refers back to a constant amount (e.g., grams, kilograms, milliliters, liters, or other suitable units) of the specimens under consideration. A number of commercially available kits can be used.
As a reminder, the pEC50 is −log10 of the EC50, conventionally taken in molar units. The molecule `Cc1cc(CNC(=O)C2CCCN2Cc2cccc(C(F)(F)F)c2)nc(-n2ccnc2)n1` (stereo not drawn) [Example 108, 1-(3-Trifluoromethyl-benzyl)-pyrrolidine-2-carboxylic acid (2-imidazol-1-yl-6-methyl-pyrimidin-4-ylmethyl)-amide] had a pEC50 below 4.30.
To `Cc1cc(C2CCCN2CCNCc2ccc3c(c2)OCO3)nc(-n2ccnc2)n1` (single isomer, unassigned) [Example 132, Benzo[1,3]dioxol-5-ylmethyl-{2-[2-(2-imidazol-1-yl-6-methyl-pyrimidin-4-yl)-pyrrolidin-1-yl]-ethyl}-amine] belongs above 6.00.
To `O=C(NCCc1ccc2c(c1)OCCO2)[C@H]1CCCN1c1nc(-n2ccnc2)ns1` [Example 120, 1-(3-Imidazol-1-yl-[1,2,4]thiadiazol-5-yl)-pyrrolidine-2-carboxylic acid [2-(2,3-dihydro-benzo[1,4]dioxin-6-yl)-ethyl]-amide] belongs above 6.00.
To `O=C(NCCc1ccc2c(c1)OCO2)[C@@H]1CCCN1c1nc(-n2ccnc2)ns1` [Example 25, (S)-1-(3-Imidazol-1-yl-[1,2,4]thiadiazol-5-yl)-pyrrolidine-2-carboxylic acid (2-benzo[1,3]dioxol-5-yl-ethyl)-amide] belongs below 4.30.
As to `C[C@H](Nc1nc(-n2ccnc2)ns1)C(=O)NCCc1ccc2c(c1)OCO2` [Example 23, (S)—N-(2-Benzo[1,3]dioxol-5-yl-ethyl)-2-(3-imidazol-1-yl-[1,2,4]thiadiazol-5-ylamino)-propionamide], the pEC50 is above 6.00.
Turning to `Oc1ccc(CN(CCCNCc2ccc3c(c2)OCO3)c2nc(-n3ccnc3)ns2)cc1` [Example 103, 4-{[{3-[(Benzo[1,3]dioxol-5-ylmethyl)-amino]-propyl}-(3-imidazol-1-yl-[1,2,4]thiadiazol-5-yl)-amino]-methyl}-phenol], the pEC50 is above 6.00.
To `Cc1cc(C(C)(C)CCC(=O)NCc2ccc3c(c2)OCO3)nc(-n2ccnc2)n1` [Example 75, 4-(2-(1H-Imidazol-1-yl)-6-methylpyrimidin-4-yl)-N-(benzo[d][1,3]dioxol-5-ylmethyl)-4-methylpentanamide] belongs above 6.00; to `O=C(NCCc1ccc2c(c1)OCO2)[C@H]1Cc2ccccc2CN1c1nc(-n2ccnc2)ns1` [Example 129, (R)-2-(3-Imidazol-1-yl-[1,2,4]thiadiazol-5-yl)-1,2,3,4-tetrahydro-isoquinoline-3-carboxylic acid (2-benzo[1,3]dioxol-5-yl-ethyl)-amide], above 6.00; to `COc1cc(CN2CCCC2C(=O)NCc2cc(C)nc(-n3ccnc3)n2)cc(OC)c1` (stereo not drawn) [Example 110, 1-(3,5-Dimethoxy-benzyl)-pyrrolidine-2-carboxylic acid (2-imidazol-1-yl-6-methyl-pyrimidin-4-ylmethyl)-amide], below 4.30.
As for `Cc1cc(CNC(=O)C2CCCN2Cc2ccc(C(F)(F)F)cc2)nc(-n2ccnc2)n1` (stereo not drawn) [Example 107, 1-(4-Trifluoromethyl-benzyl)-pyrrolidine-2-carboxylic acid (2-imidazol-1-yl-6-methyl-pyrimidin-4-ylmethyl)-amide], the figure is below 4.30; as for `CN(CCCN(C)c1nc(-n2ccnc2)ns1)CCc1ccc2c(c1)OCO2` [Example 88, N-(2-Benzo[1,3]dioxol-5-yl-ethyl)-N′-(3-imidazol-1-yl-[1,2,4]thiadiazol-5-yl)-N,N′-dimethyl-propane-1,3-diamine], above 6.00.
On to `Cc1cc(CNC(=O)C2CCCN2Cc2ccc(F)cc2)nc(-n2ccnc2)n1` (stereo not drawn) [Example 111, 1-(4-Fluoro-benzyl)-pyrrolidine-2-carboxylic acid (2-imidazol-1-yl-6-methyl-pyrimidin-4-ylmethyl)-amide], for which the pEC50 was below 4.30.
As for `CCOC(=O)CN(CCCN(C)Cc1ccc2c(c1)OCO2)c1nc(-n2ccnc2)ns1` [Example 58, [[3-(Benzo[1,3]dioxol-5-ylmethyl-methyl-amino)-propyl]-(3-imidazol-1-yl-[1,2,4]thiadiazol-5-yl)-amino]-acetic acid ethyl ester], the figure is above 6.00.
To `CN(CCCNCc1ccc(C(F)(F)F)cc1)c1nc(-n2ccnc2)ns1` [Example 11, N-(3-Imidazol-1-yl-[1,2,4]thiadiazol-5-yl)-N-methyl-N′-(4-trifluoromethyl-benzyl)-propane-1,3-diamine] belongs below 4.30; to `CCCN(CCCNCc1ccc2c(c1)OCO2)c1nc(-n2ccnc2)ns1` [Example 31, N′-Benzo[1,3]dioxol-5-ylmethyl-N-(3-imidazol-1-yl-[1,2,4]thiadiazol-5-yl)-N-propyl-propane-1,3-diamine], above 6.00; to `O=C(O)CN(CCCNCc1ccc2c(c1)OCO2)c1nc(-n2ccnc2)ns1` [Example 55, [{3-[(Benzo[1,3]dioxol-5-ylmethyl)-amino]-propyl}-(3-imidazol-1-yl-[1,2,4]thiadiazol-5-yl)-amino]-acetic acid], above 4.30.
To `Cc1cc(C2C(C(=O)NCCc3ccc4c(c3)OCCO4)CCN2C)nc(-n2ccnc2)n1` (stereo not drawn) [Example 124, 2-(2-Imidazol-1-yl-6-methyl-pyrimidin-4-yl)-1-methyl-pyrrolidine-3-carboxylic acid [2-(2,3-dihydro-benzo[1,4]dioxin-6-yl)-ethyl]-amide] belongs above 6.00; to `Cc1cc(C2CCCCN2CCNCc2ccc3c(c2)OCO3)nc(-n2ccnc2)n1` (stereo not drawn) [Example 142, Benzo[1,3]dioxol-5-ylmethyl-{2-[2-(2-imidazol-1-yl-6-methyl-pyrimidin-4-yl)-piperidin-1-yl]-ethyl}-amine], above 6.00; to `Cc1cc(C2CCCN2CCN(C)Cc2ccc3c(c2)OCCO3)nc(-n2ccnc2)n1` (stereo not drawn) [Example 93, (2,3-Dihydro-benzo[1,4]dioxin-6-ylmethyl)-{2-[2-(2-imidazol-1-yl-6-methyl-pyrimidin-4-yl)-pyrrolidin-1-yl]-ethyl}-methyl-amine], above 6.00.
Regarding `c1cn(-c2nsc(N3CCN(Cc4ccc5c(c4)OCO5)CC3)n2)cn1` [Example 33, 1-Benzo[1,3]dioxol-5-ylmethyl-4-(3-imidazol-1-yl-[1,2,4]thiadiazo-5-yl)-piperazine], the pEC50 is above 4.30.
`CNC(=O)C1CCC(C(=O)NCCc2ccc3c(c2)OCO3)N1c1nc(-n2ccnc2)ns1` (stereo not drawn) [Example 96, 1-(3-Imidazol-1-yl-[1,2,4]thiadiazol-5-yl)-pyrrolidine-2,5-dicarboxylic acid 2-[(2-benzo[1,3]dioxol-5-yl-ethyl)-amide] 5-methylamide] had a pEC50 above 4.30.
Consider `CN(CCc1ccc2c(c1)OCCO2)CCN(C)c1nc(-n2ccnc2)ns1` [Example 84, N-[2-(2,3-Dihydro-benzo[1,4]dioxin-6-yl)-ethyl]-N′-(3-imidazol-1-yl-[1,2,4]thiadiazol-5-yl)-N,N′-dimethyl-ethane-1,2-diamine], for which the pEC50 was above 6.00.
In turn, `Cc1cc(C(C)NCCNCc2ccc(-n3cccc3)cc2)nc(-n2ccnc2)n1` (stereo not drawn) [Example 97, N-[1-(2-Imidazol-1-yl-6-methyl-pyrimidin-4-yl)-ethyl]-N′-(4-pyrrol-1-yl-benzyl)-ethane-1,2-diamine] gave a pEC50 above 4.30.
As for `CN(CCCNCc1ccncc1)c1nc(-n2ccnc2)ns1` [Example 21, N-(3-Imidazol-1-yl-[1,2,4]thiadiazol-5-yl)-N-methyl-N′-pyridin-4-ylmethyl-propane-1,3-diamine], the figure is below 4.30.
